The results in this text go back to US6953786B2, “Compositions comprising plant-derived polyphenolic compounds and inhibitors of reactive oxygen species and methods of using thereof” (The Regents of the University of California, priority 2002, dated 2005).

One assay has as its system Mia PACA-2 cells. Nature of the assay: Mitochondrial membrane potential, DiOC6(3) retention. It counts as cell-based, human. The protocol: (§1) In order to determine the effects polyphenolic compounds have on mitochondrial membrane potential, the retention of the dye 3,3′-dihexyloxacarbocyanine (DiOC6(3)) was measured as described by Pastorino J G, et al. (1998) J Biol Chem 273:7770-7775, which is herein incorporated by reference. BSp73AS cells were cultured for 6 hours in the absence (control) or presence of 0, 12, 24, 50, and 100 μM quercetin and trans-resveratrol. The cells were loaded with 1 μM DiOC6(3) during the last 30 minutes of treatment with a polyphenolic compound (or vehicle). The cells were then collected and pelleted by centrifugation. The supernatant was removed and the pellet was washed twice with PBS by alternate centrifugation and resuspension. The pellet was then lysed by addition of 1 ml of H2O and homogenized. The concentration of DiOC6(3) was read on a Perkin-Elmer LS-5 fluorescence spectrometer at 488 nm excitation and 500 nm emission. An aliquot of the cells was used for determining the DiOC6(3) fluorescence that was retained by the cells.
Mia PACA-2 cells were cultured for 72 hours in the presence of serum and trans-resveratrol or genistein in the presence or absence of DPI or Tiron. Mitochondrial membrane potential was measured as described above.

The next assay concerns cytochrome c. The assay is described as follows: Mitochondrial cytochrome c release (Western blot). The assay is classed as cell-based, rat. Conditions: BSp73AS, 6 hours, 100 μM. The protocol: In order to determine the effects polyphenolic compounds have on mitochondrial cytochrome c release and apoptosis, the following assay was conducted. BSp73AS cells were cultured for 6 hours and Mia PACA-2 cells were cultured in the absence of serum or growth factors for 24 hours in the absence or presence of 100 μM of each rutin, trans-resveratrol, genistein, or quercetin. Cells were washed twice with ice-cold PBS, pH 7.2 and resuspended in extraction buffer, about 500 μl, comprising 20 mM HEPES-KOH (pH 7.0), 10 mM KCl, 1 mM […], 2 mM MgCl2, 1 mM EDTA, 1 mM DTT, 250 mM sucrose, 1 mM PMSF and protease inhibitors cocktail as provided above. The lysate was incubated for 30 minutes on ice and then homogenized using a glass dounce (80 strokes). Nuclei were removed by centrifugation at 1,000 g for 10 minutes at 4° C. Supernatant was additionally centrifuged for 1 hour at 100,000 g and the resulting supernatant (cytosolic fraction) and pellet (mitochondrial fraction) were collected separately, subjected to SDS-PAGE, and Western blotting using an antibody against cytochrome c. The experiment was repeated twice with similar results.
(In general: A western blot detects proteins with antibodies after separation by electrophoresis.)

The next assay has as its system BSp73AS cells. The assay is described as follows: Mitochondrial membrane potential, DiOC6(3) retention. It counts as cell-based, rat. Conditions: 6 hours (FIG. 10A). The protocol: as §1
Another assay concerns NF-κB. Nature of the assay: NF-κB DNA binding activity (EMSA / gel shift). It counts as cell-based, human. Conditions: for NF-κB activation (DNA binding): Mia PACA-2, 24 hours, no serum, polyphenols 100 μM, MG-132 20 μM; for NF-κB activation caused by serum: Mia PACA-2, 72 hours, with serum, DPI 15 μM, trans-resveratrol 100 μM, genistein 100 μM, LY294002 50 μM. The protocol:
In order to determine the role of activated NF-κB in the regulation of apoptosis caused by the polyphenolic compound, the following assay was conducted. BSp73AS cells were cultured for 6 hours and Mia PACA-2 cells were cultured in the absence of serum or growth factors for 24 hours in the absence (controls) or presence of rutin, quercetin, trans-resveratrol, or genistein, each at 100 μM and 20 μM proteosome inhibitor MG-132. Nuclear proteins were isolated and analyzed for NF-κB DNA binding activity with electrophoretic mobility shift assay (EMSA).
Specifically, aliquots of nuclear extracts with equal amount of protein, about 2 to about 10 μg, were mixed in 20 μl reactions with a buffer comprising 10 mM HEPES (pH 7.6), 50 mM KCl, 0.1 mM EDTA, 1 mM DTT, 10% (vol/vol) glycerol and 3 μg poly[d (I-C)]. After aliquots were equilibrated on ice for 5 minutes, binding reactions were stared by addition of 20-60,000 counts/min (20 fM) of ^32P-labeled DNA probes and allowed to proceed for 25-30 minutes at room temperature or up to 1 hour on ice. The oligonucleotide probe
containing the κB binding motif (underlined) was annealed to the complementary oligonucleotide with a 5′-G overhang and end-labeled using Klenow DNA polymerase I. The samples were electrophoresed at room temperature in 0.5×TBE buffer (1×TBE 89 mM Tris base, 89 mM boric acid and 2 mM EDTA) on nondenaturing 4.5% polyacrylamide gel at 200 V. Gels were dried and directly analyzed in the PhosphorImager (Molecular Dynamics, Sunnyvale, Calif.). The experiment was repeated twice.
To study the effects of combinations of DPI and polyphenolic compounds on serum-induced activation of NF-κB and protection from apoptosis, the following assay was conducted. Mia PACA-2 cells were cultured for 72 hours in the presence of serum with or without 100 μM trans-resveratrol, 15 μM DPI, a combination of trans-resveratrol, 100 μM genistein, or a combination of genistein and DPI. NF-κB binding activity was measured in nuclear extracts by gel shift assay as described above.
To determine the effects of LY29400 and DPI on NF-κB activation, Mia PACA-2 cells were cultured for 72 hours in the presence of serum and 15 μM DPI with or without 50 μM LY294002. NF-κB DNA binding activity was measured in nuclear extracts by gel shift assay as described above.

The mark [1] stands for this setting: Mia PACA-2, 72 hours, in the presence of serum (FIG. 11).
Where [2] appears, read: Mia PACA-2, no serum (FIG. 10B).

For the compound `O=c1c(-c2ccc(O)cc2)coc2cc(O)cc(O)c12` [genistein], the values for the mitochondrial membrane potential entry with Mia PACA-2 cells (setting [1]), in the assay with Mia PACA-2 cells (setting [2]) and in the assay with BSp73AS cells were “no effects on mitochondrial membrane potential”, “caused dissipation of the mitochondrial membrane potential” and “caused dissipation of the mitochondrial membrane potential”, respectively. Besides, the “cytosolic and mitochondrial cytochrome c” value with cytochrome c is “caused increases in cytosolic cytochrome c and decreases in mitochondrial cytochrome c”. Moreover, the “NF-κB activation (DNA binding)” value in the assay on NF-κB was “has no effect on NF-κB”. Further, the “NF-κB activation caused by serum” value in the assay on NF-κB is given as “not inhibited”.

As for `Oc1ccc(/C=C/c2cc(O)cc(O)c2)cc1` [trans-resveratrol], the mitochondrial membrane potential entry is on record as “no effects on mitochondrial membrane potential” in the assay with Mia PACA-2 cells (setting [1]), “caused dissipation of the mitochondrial membrane potential” with Mia PACA-2 cells (setting [2]) and “caused dissipation of the mitochondrial membrane potential” with BSp73AS cells. Also, the “cytosolic and mitochondrial cytochrome c” value in the assay on cytochrome c was “caused increases in cytosolic cytochrome c and decreases in mitochondrial cytochrome c”. In addition, in the assay with NF-κB, the “NF-κB activation (DNA binding)” value was “inhibit NF-κB activation”. For the same compound, the “NF-κB activation caused by serum” value in the assay on NF-κB is on record as “not inhibited”.

`O=c1c(O)c(-c2ccc(O)c(O)c2)oc2cc(O)cc(O)c12` [quercetin]: the mitochondrial membrane potential result in the assay with Mia PACA-2 cells (setting [2]) and in the assay on BSp73AS cells was “caused dissipation of the mitochondrial membrane potential” each time. In addition, the “cytosolic and mitochondrial cytochrome c” value in the assay with cytochrome c is “caused increases in cytosolic cytochrome c and decreases in mitochondrial cytochrome c”. Also, the “NF-κB activation (DNA binding)” value with NF-κB was “inhibit NF-κB activation”.
